Values after ≈ are worked out from the molar mass of the structure shown.

Experiment [1] relates to Mycobacterium tuberculosis. As to the kind of experiment: Antimicrobial activity against Mycobacterium tuberculosis H37Rv after 10 days by BACTEC MGIT method. The experiment is classed as functional. Particulars: 240 h.
The test system of experiment [2] is Bacillus subtilis. As to the kind of experiment: Antimicrobial activity against Bacillus subtilis MTCC 619 after 24 hr by disk diffusion method. Particulars: for MIC: Bacillus subtilis, MTCC 619, 24 h. The experiment is classed as functional. For orientation: A growth-free zone around the sample is the usual read-out of agar diffusion tests.
In experiment [3] the test system is Staphylococcus aureus. As to the kind of experiment: Antimicrobial activity against Staphylococcus aureus MTCC 96 after 24 hr by disk diffusion method. The experiment is classed as functional. As to conditions: for MIC: Staphylococcus aureus, MTCC 96, 24 h.
Experiment [4] relates to Escherichia coli. As to the kind of experiment: Antimicrobial activity against Escherichia coli MTCC 739 after 24 hr by disk diffusion method. The experiment is classed as functional. As to conditions: for MIC: Escherichia coli, MTCC 739, 24 h.
Experiment [5] has as its system Pseudomonas aeruginosa. As to the kind of experiment: Antimicrobial activity against Pseudomonas aeruginosa MTCC 741 after 24 hr by disk diffusion method. The experiment is classed as functional. As to conditions: for MIC: Pseudomonas aeruginosa, MTCC 741, 24 h.
Experiment [6] deals with Staphylococcus aureus. As to the kind of experiment: Antimicrobial activity against Staphylococcus aureus MTCC 96 at 100 ug/disc after 24 hr by disk diffusion method. As to conditions: MTCC 96, 24 h, read-out: IZ.
In experiment [7] the test system is Bacillus subtilis. As to the kind of experiment: microbe, parasite or virus in culture. Particulars: MTCC 619, 24 h, read-out: IZ.
Description: Antimicrobial activity against Bacillus subtilis MTCC 619 at 100 ug/disk after 24 hr by disk diffusion method
The subject of experiment [8] is Pseudomonas aeruginosa. As to the kind of experiment: microbe, parasite or virus in culture. Particulars: MTCC 741, 24 h, read-out: IZ.
Description: Antimicrobial activity against Pseudomonas aeruginosa MTCC 741 at 100 ug/disk after 24 hr by disk diffusion method
In experiment [9] the test system is Escherichia coli. As to the kind of experiment: microbe, parasite or virus in culture. Particulars: MTCC 739, 24 h, read-out: IZ.
Description: Antimicrobial activity against Escherichia coli MTCC 739 at 100 ug/disk after 24 hr by disk diffusion method

As to `CC1=NN(c2ccc(S(=O)(=O)O)cc2C)C(=O)C1/N=N/c1n[nH]c2nc3cc4ccccc4cc3cc12` (centres undefined), the MIC99 – broadly, the lowest concentration that inhibits either 99% of growth or 99% of the strains tested, depending on the study – in experiment [1] is 500 µg/mL (≈ 974 µM). Moreover, the “inhibition zone (IZ)” value in [2] is listed as 11 mm; in experiment [3] it was 12 mm; in [4], 12 mm; in [5], 11 mm. The MIC in experiment [2], in experiment [3], in experiment [4] and in [5] was 100 µg/mL (≈ 195 µM) throughout.
`CC1=NN(c2cc(Cl)c(S(=O)(=O)O)cc2Cl)C(=O)C1/N=N/c1n[nH]c2nc3cc4ccccc4cc3cc12` (centres undefined) had an MIC99 in experiment [1] of 500 µg/mL (≈ 880 µM). The “inhibition zone (IZ)” value in experiment [2] stood at 20 mm; in experiment [3], 18 mm; in [4] it was 16 mm; in [5], 15 mm. Also, the minimum inhibitory concentration (MIC) (in general, the lowest concentration that inhibits growth of the organism) amounted to 50 µg/mL (≈ 88 µM) in experiment [2], 50 µg/mL (≈ 88 µM) in [3], 100 µg/mL (≈ 176 µM) in experiment [4] and 100 µg/mL (≈ 176 µM) in experiment [5].
In the case of `CC1=NN(c2ccc(Cl)c(Cl)c2)C(=O)C1/N=N/c1n[nH]c2nc3cc4ccccc4cc3cc12` (centres undefined), in experiment [1], the MIC99 worked out at 62.5 µg/mL (≈ 128 µM). The “inhibition zone (IZ)” value in experiment [2] is 24 mm; in [3], 20 mm; in experiment [4] it was 20 mm; in [5] it was 21 mm. The minimal inhibitory concentration (MIC) in experiment [2] was 20 µg/mL (≈ 41 µM); in [3] it was 20 µg/mL (≈ 41 µM); in experiment [4], 50 µg/mL (≈ 102 µM); in experiment [5], 50 µg/mL (≈ 102 µM).
The molecule `CC1=NN(c2ccccc2Cl)C(=O)C1/N=N/c1n[nH]c2nc3cc4ccccc4cc3cc12` (centres undefined) showed an MIC99 in experiment [1] of 250 µg/mL (≈ 551 µM). Also, the “inhibition zone (IZ)” value in [2], in experiment [3], in experiment [4] and in experiment [5] was 16 mm throughout. The minimal inhibitory concentration (MIC) in [2], in experiment [3], in experiment [4] and in experiment [5] was 50 µg/mL (≈ 110 µM) each time.
Turning to `CC1=NN(c2cc(S(=O)(=O)O)ccc2Cl)C(=O)C1/N=N/c1n[nH]c2nc3cc4ccccc4cc3cc12` (centres undefined), the MIC99 in [1] worked out at 1000 µg/mL (≈ 1870 µM). The “inhibition zone (IZ)” value in experiment [2] came to 14 mm; in [3], 18 mm; in [4], 18 mm; in experiment [5] it was 14 mm. The MIC in [2] is 50 µg/mL (≈ 93.6 µM); in experiment [3], 50 µg/mL (≈ 93.6 µM); in experiment [4], 100 µg/mL (≈ 187 µM); in experiment [5] it was 100 µg/mL (≈ 187 µM).
In experiment [1], `NNC(=O)c1ccncc1` [ISONIAZID] came in with an MIC99 of 0.2 µg/mL (≈ 1.46 µM).
Molecule `CC1=NN(c2cc(Cl)ccc2Cl)C(=O)C1/N=N/c1n[nH]c2nc3cc4ccccc4cc3cc12` (centres undefined) had an MIC99 in [1] of 62.5 µg/mL (≈ 128 µM). The “inhibition zone (IZ)” value in [2] was found to be 24 mm; in [3], 22 mm; in [4], 19 mm; in experiment [5], 18 mm. In addition, the MIC in [2] worked out at 20 µg/mL (≈ 41 µM); in experiment [3] it was 20 µg/mL (≈ 41 µM); in experiment [4] it was 50 µg/mL (≈ 102 µM); in [5] it was 50 µg/mL (≈ 102 µM).
On to `CC1=NN(c2cccc(S(=O)(=O)O)c2)C(=O)C1/N=N/c1n[nH]c2nc3cc4ccccc4cc3cc12` (centres undefined), for which the MIC99 in [1] came to 500 µg/mL (≈ 1000 µM). The “inhibition zone (IZ)” value in [2] was 12 mm; in [3], 11 mm; in [4] it was 10 mm; in [5], under 10 mm. Moreover, the MIC in experiment [2], in [3], in experiment [4] and in experiment [5] was 100 µg/mL (≈ 200 µM) in each case.
For the molecule `CC1=NN(c2cccc(Cl)c2)C(=O)C1/N=N/c1n[nH]c2nc3cc4ccccc4cc3cc12` (centres undefined), the MIC99 in experiment [1] came to 250 µg/mL (≈ 551 µM). The “inhibition zone (IZ)” value in [2] is on record as 18 mm; in [3], 16 mm; in experiment [4] it was 17 mm; in experiment [5] it was 15 mm. The MIC in [2], in experiment [3], in experiment [4] and in [5] was 50 µg/mL (≈ 110 µM) in each case.
`CC1=NN(c2ccc(C)cc2)C(=O)C1/N=N/c1n[nH]c2nc3cc4ccccc4cc3cc12` (centres undefined) had an MIC99 in experiment [1] of 125 µg/mL (≈ 288 µM). Further, the “inhibition zone (IZ)” value in [2] is reported as 16 mm; in experiment [3] it was 14 mm; in [4], 12 mm; in experiment [5] it was 14 mm. The minimum inhibitory concentration (MIC) turned out to be 50 µg/mL (≈ 115 µM) in experiment [2], 50 µg/mL (≈ 115 µM) in experiment [3], 100 µg/mL (≈ 231 µM) in experiment [4] and 100 µg/mL (≈ 231 µM) in experiment [5].
Consider `CC1=NN(c2ccc(S(=O)(=O)O)cc2)C(=O)C1/N=N/c1n[nH]c2nc3cc4ccccc4cc3cc12` (centres undefined), for which the MIC99 in [1] stood at 1000 µg/mL (≈ 2000 µM). For the same molecule, the “inhibition zone (IZ)” value was 12 mm in [2], 14 mm in [3], 10 mm in experiment [4] and under 10 mm in experiment [5]. Besides, the MIC in [2], in [3], in experiment [4] and in [5] was 100 µg/mL (≈ 200 µM) in each case.
As for `O=C(O)c1cn(C2CC2)c2cc(N3CCNCC3)c(F)cc2c1=O` [CIPROFLOXACIN], the zone of inhibition at 100 µg/disc in experiment [6] was found to be 32 mm; in experiment [7], 33 mm; in experiment [8], 31 mm; in experiment [9] it was 30 mm. The MIC in [2], in experiment [3], in experiment [4] and in [5] was at most 1 µg/mL in each case.

The record behind these values is ChEMBL document CHEMBL3045500, “Antituberculosis and antibacterial evaluations of some novel phenyl pyrazolone-substituted 1h-benzo[g]pyrazolo[3,4-b]quinoline-3-ylamine derivatives” (2012).
